Measured values: patent US20100041744A1, “OILY PACLITAXEL COMPOSITION AND FORMULATION FOR CHEMOEM[…] PREPARATION METHOD THEREOF” (priority 2001, published 2010)
Values after ≈ are worked out from the molar mass of the structure shown.

Key:
physchem = settings: oil or lipid
Protocol: (§1) One milliliter of Lipiodol (Lipiodol Ultra-fluid, Laboratoire Guerbet, France, Iodine content 38% by weight) was used as an oily contrast medium. Lipiodol and 2, 4, 6, 8, 10 or 11 mg of paclitaxel (Samyang Genex, Korea) were added in test tubes (micro test tubes with safety lock, polyethylene, 1.5 ml, Eppendorf AG, Germany) and solubilized by stirring at room temperature. To speed up the solubilization process, it is acceptable to raise the temperature to 35˜45° C. or to sonicate in a bath type sonicator.
(§2) One milliliter of Lipiodol (Lipiodol Ultra-fluid, Laboratoire Guerbet, France, Iodine content 38% by weight) and 10 mg of paclitaxel (Samyang Genex, Korea) were added in test tubes and solubilized by stirring at room temperature. To speed up the solubilization process, the temperature of the mixture was raised to 40° C.
(§3) A mixture of 1 ml of Lipiodol (Lipiodol Ultra-fluid, Laboratoire Guerbet, France, Iodine content 38% by weight) and 0.01 ml of tricaprylin (Sigma Chemical Co.) and 12 mg of paclitaxel (Samyang Genex, Korea) were added in a test tube and solubilized by stirring at room temperature. To speed up the solubilization process, the composition was sonicated in a bath type sonicator.

[1] = Solubilization / solubility of paclitaxel in oily contrast medium
Protocol: as §1, §2, §3

solubility (physchem; Lipiodol (oily contrast medium), 26 °C, thermodynamic from solid): ~10 mg/mL (≈ 11.7 mM)
solubility (physchem): ≤ 13 mg/mL
solubility of paclitaxel in mixed oil system of lipiodol/tricaprylin compared with lipiodol alone [1]: higher
Structure (SMILES): CC(=O)O[C@H]1C(=O)[C@@]2(C)[C@H]([C@H](OC(=O)c3ccccc3)[C@]3(O)C[C@H](OC(=O)[C@H](O)[C@@H](NC(=O)c4ccccc4)c4ccccc4)C(C)=C1C3(C)C)[C@]1(OC(C)=O)CO[C@@H]1C[C@@H]2O [paclitaxel]
